{"source": "patent US20190328706A1", "about": "“COMPOSITIONS COMPRISING AN INTEGRIN INHIBITOR AND AGENTS WHICH INTERACT WITH A CHEMOKINE AND METHODS OF USE THEREOF” (Saint Louis University, priority 2016, published 2019)", "key": {"[1]": {"test_system": "human G2 acute lymphoblastic leukemia (ALL) cells", "assay": "Flow cytometry cell-based assay: inhibition of soluble VCAM-1 binding to G2 ALL cells", "method": "(§1) Compounds were tested for their ability to inhibit the binding of soluble VCAM-1 to human G2 acute lymphoblastic leukemia (ALL) cells. Briefly, G2 ALL cells are pre-incubated with increasing concentrations (0.001 to 1000 nM) of compounds for 30 minutes. Soluble VCAM/Fc chimera protein (R&D systems) is then added to the mixture and the cells incubated for an additional 30 minutes. Afterwards, cells are washed and VCAM-1 is detected using PE-conjugated secondary mAbs. In each experiment, an aliquot of cells will be stained with isotype control mAbs to serve as a negative control. The percentage of VCAM-1 binding cells was then determined by flow cytometry.\nas §1, with “(ALL) cells or 5TGMI myeloma” for “(ALL)”, “ALL or 5TGMI” for “ALL”"}, "murine HSPCs": {"test_system": "murine HSPCs", "assay": "Colony forming cell (CFC/CFU) assay of mobilized peripheral blood, DBA/2 mice", "assay_type": "in vivo", "details": "for amount of CFU-C cells mobilized in combination with Groβt versus inhibitor alone: DBA/2J mice, FIG. 16", "method": "The VLA-4 inhibitors Examples 1220, 1221, 1224, 1610, and 1611 were prepared in DMSO/10 mM sodium bicarbonate pH 8/saline (1%/49.5%/49.5%) and injected subcutaneously (SC) at a dose of 3 mg/kg.\n(§2) Peripheral blood (PB) was drawn from the facial vein without anaesthesia into K/EDTA anti-coagulated tubes (Sarstedt AG & Co, Numbrecht, Germany). Red blood cells were removed from 25 L aliquots of blood using hypotonic lysis (Ammonium-Chloride-Potassium, ACK buffer, 5-10 min at RT) and samples were mixed with 2.5 mL methylcellulose media supplemented with a cocktail of recombinant cytokines (MethoCult 3434; Stem Cell Technologies, Vancouver, BC, Canada). Cultures were plated in duplicate in 35 mm dishes and placed in a humidified chamber with 5% CO2 at 37° C. After 7 d of culture, colonies containing at least 50 cells were counted using an inverted microscope in a blinded fashion.\n(§3) Recombinant human CXCL2 (Groβt; R&D systems) was reconstituted in sterile Ca^+2/Mg^+2-free phosphate buffered saline (PBS) and injected subcutaneously (SC) at a dose of 2.5 mg/kg. Firategrast (U.S. Patent Application No. 2014/051655) was dissolved in Ca^+2/Mg^+2-free PBS plus 1% ethanol and injected intravenously at a dose of 100 mg/kg. RhG-CSF (Neupogen®, Filgrastim, Amgen, Thousand Oaks, Calif., USA) diluted in PBS was injected i.p. every 12 hrs at a dose of 100 μg/kg for a total of 9 (day 5) doses.\nas §2, with “Co, Nimbrecht,” for “Co, Numbrecht,”, “25 μL” for “25 L”\nas §3, with “(published structure: C27H27F2NO6; U.S.” for “(U.S.”"}, "LSK cells": {"test_system": "LSK cells", "assay": "Flow cytometric enumeration of mobilized LSK cells, DBA/2J mice", "assay_type": "in vivo", "details": "for LSK cell mobilization compared with firategrast: FIG. 17", "method": "Peripheral blood (PB) was drawn from the facial vein without anaesthesia into K/EDTA anti-coagulated tubes (Sarstedt AG & Co, Nimbrecht, Germany). Cell counts (WBC) were determined using an automatic hemocytometer (Hemavet 950, Drew Scientific, Dallas, Tex.). Red blood cells were removed from 25 μL aliquots of blood using hypotonic lysis (Ammonium-Chloride-Potassium, ACK buffer, 5-10 min at RT). Samples were resuspended in staining buffer (PBS supplemented with 0.5% bovine serum albumin and 2 mM EDTA) and incubated for 30 min at 4° C. with pre-titrated saturating dilutions of the following fluorochrome-labeled monoclonal antibodies (BD Biosciences, San Jose, Calif.; clone designated in parenthesis): Sca1-PE (D7), CD117-BV421 (ACK2), lineage-APC (17A2, RB6-8C5, RA3-6B2, Ter-119, M/170) and CD45-A700 (30-F11). Dead cells were excluded from these assays by staining with 2 μg/mL 7-amino-actinomycin D (Molecular Probes, Eugene, Oreg.) for 5 min prior to analysis. Appropriate isotype-matched negative controls were used to assess background fluorescence intensity. Samples were analyzed on a Beckman Coulter Gallios flow cytometer and data were analyzed using FlowJo software (TreeStar, Ashland, Oreg.). Absolute numbers of immunophenotypically defined populations (e.g. LSK) were calculated by identifying CD45 positive cells as WBC from the corresponding cell count analysis. Statistical comparisons of flow cytometry data were performed using an unpaired two-tailed Student t-test (GraphPad Prism). P-values ≤0.05 were considered significant."}, "5TGMI myeloma cells": {"test_system": "5TGMI myeloma cells", "assay": "Flow cytometry cell-based assay: inhibition of soluble VCAM-1 binding to 5TGMI myeloma cells", "details": "FIG. 12", "method": "as §1, with “(ALL) cells or 5TGMI myeloma” for “(ALL)”, “ALL or 5TGMI” for “ALL”"}, "[2]": {"details": "Table 12; inhibition of sVCAM-1 binding to human G2 ALL cells; read-out: sVCAM-1 IC50"}, "[3]": {"details": "Table 10; inhibition of sVCAM-1 binding to human G2 ALL cells; read-out: sVCAM-1 IC50"}, "[4]": {"details": "flow cytometry, FIG. 5, 8, 9, 12"}, "[5]": {"details": "Table 8; inhibition of sVCAM-1 binding to human G2 ALL cells; read-out: sVCAM-1 IC50"}, "[6]": {"details": "flow cytometry, FIG. 6, 7, 10, 11"}}, "note": "Like-named read-outs stand apart in the source and are kept apart here.", "data": [{"compound": "CCOCc1cc(OC)c(-c2ccc(C[C@H](NC(=O)c3c(Cl)cccc3Cl)C(=O)O)cc2C(C)O)c(OC)c1", "note": "(stereo partly drawn) [Cmpd 12, (2S)-2-(2,6-dichlorobenzamido)-3-(4′-(ethoxymethyl)-2-(1-hydroxyethyl)-2′,6′-dimethoxy-[1,1′-biphenyl]-4-yl)propanoic acid]", "values": [{"measurement": "IC50", "setting": "[1]; [2]", "result": 3.33, "unit": "nM"}, {"measurement": "amount of CFU-C cells mobilized in combination with Groβt versus inhibitor alone", "setting": "murine HSPCs", "result": "nearly doubled"}]}, {"compound": "CCOCc1cc(OC)c(-c2ccc(C[C@H](NC(=O)[C@@H]3CCCN3S(=O)(=O)c3ccccc3)C(=O)O)cc2)c(OC)c1", "note": "[Cmpd 35, (S)-3-(4′-(ethoxymethyl)-2′,6′-dimethoxy-[1,1′-biphenyl]-4-yl)-2-((S)-1-(phenylsulfonyl)pyrrolidine-2-carboxamido)propanoic acid]", "values": [{"measurement": "IC50", "setting": "[1]; [2]", "result": 0.83, "unit": "nM"}, {"measurement": "amount of CFU-C cells mobilized in combination with Groβt versus inhibitor alone", "setting": "murine HSPCs", "result": "nearly doubled"}]}, {"compound": "CCOCc1cc(OC)c(-c2ccc(C[C@H](NC(=O)[C@@H]3CCCN3S(=O)(=O)c3cc(Cl)cc(Cl)c3)C(=O)O)cc2)c(OC)c1", "note": "[Cmpd 36, (S)-2-((S)-1-((3,5-dichlorophenyl)sulfonyl)pyrrolidine-2-carboxamido)-3-(4′-(ethoxymethyl)-2′,6′-dimethoxy-[1,1′-biphenyl]-4-yl)propanoic acid]", "values": [{"measurement": "IC50", "setting": "[1]; read-out: sVCAM-1 IC50; Table 12; inhibition of sVCAM-1 binding to human G2 ALL cells", "result": 0.49, "unit": "nM"}, {"measurement": "amount of CFU-C cells mobilized in combination with Groβt versus inhibitor alone", "setting": "murine HSPCs", "result": "nearly doubled"}]}, {"compound": "COc1cccc(OC)c1-c1ccc(C[C@H](NC(=O)[C@]2(C)CCCN2S(=O)(=O)c2cc(Cl)cc(Cl)c2)C(=O)O)cc1", "note": "[Compound 824]", "values": [{"measurement": "LSK cell mobilization compared with firategrast", "setting": "LSK cells", "result": "greater extent than firategrast"}, {"measurement": "IC50", "setting": "[1]; [3]", "result": 0.6, "unit": "nM"}, {"measurement": "inhibition of sVCAM-1 binding compared with Firategrast", "setting": "[1]; [4]", "result": "significantly more potent"}]}, {"compound": "COc1cc(CC(=O)N[C@@H](CC(C)C)c2cc(CCC(=O)O)on2)ccc1NC(=O)Nc1ccccc1C", "note": "[Compound 842]", "values": [{"measurement": "LSK mobilization, VLA4 blockade combined with CXCR2 stimulation", "setting": "LSK cells; DBA2/J mice, FIG. 15/29", "result": "mobilized"}, {"measurement": "IC50", "setting": "[1]; [3]", "result": 0.4, "unit": "nM"}, {"measurement": "inhibition of sVCAM-1 binding compared with Firategrast", "setting": "[1]; [4]", "result": "significantly more potent"}, {"measurement": "CFU-C mobilization, VLA4 blockade combined with CXCR2 stimulation", "setting": "murine HSPCs; DBA2/J mice, FIG. 15/29", "result": "mobilized"}]}, {"compound": "CCOCc1cc(OC)c(-c2ccc(C[C@H](NC(=O)[C@@H]3CCCN3S(=O)(=O)c3ccccc3)C(=O)O)cc2)c(OC)c1", "note": "[Compound 1610, (S)-3-(4′-(ethoxymethyl)-2′,6′-dimethoxy-[1,1′-biphenyl]-4-yl)-2-((S)-1-(phenylsulfonyl)pyrrolidine-2-carboxamido)propanoic acid]", "values": [{"measurement": "LSK cell mobilization compared with firategrast", "setting": "LSK cells", "result": "greater extent than firategrast"}, {"measurement": "inhibition of VCAM binding in 5TGMI cells compared with Firategrast / BIO5192", "setting": "5TGMI myeloma cells", "result": "even more potent than BIO5192"}, {"measurement": "IC50", "setting": "[1]; [5]", "result": 0.83, "unit": "nM"}, {"measurement": "inhibition of sVCAM-1 binding compared with Firategrast", "setting": "[1]; [4]", "result": "significantly more potent than Firategrast"}]}, {"compound": "CCOCc1cc(OC)c(-c2ccc(C[C@H](NC(=O)[C@@H]3CCCN3S(=O)(=O)c3cc(Cl)cc(Cl)c3)C(=O)O)cc2)c(OC)c1", "note": "[Compound 1611, (S)-2-((S)-1-((3,5-dichlorophenyl)sulfonyl)pyrrolidine-2-carboxamido)-3-(4′-(ethoxymethyl)-2′,6′-dimethoxy-[1,1′-biphenyl]-4-yl)propanoic acid]", "values": [{"measurement": "LSK cell mobilization compared with firategrast", "setting": "LSK cells", "result": "greater extent than firategrast"}, {"measurement": "inhibition of VCAM binding in 5TGMI cells compared with Firategrast / BIO5192", "setting": "5TGMI myeloma cells", "result": "even more potent than BIO5192"}, {"measurement": "IC50", "setting": "[1]; [5]", "result": 0.49, "unit": "nM"}, {"measurement": "inhibition of sVCAM-1 binding compared with Firategrast", "setting": "[1]; [4]", "result": "significantly more potent than Firategrast"}]}, {"compound": "CCOCc1cc(OC)c(-c2ccc(C[C@H](NC(=O)c3c(Cl)cccc3Cl)C(=O)O)cc2C(C)O)c(OC)c1", "note": "(stereo partly drawn) [Compound 1633, (2S)-2-(2,6-dichlorobenzamido)-3-(4′-(ethoxymethyl)-2-(1-hydroxyethyl)-2′,6′-dimethoxy-[1,1′-biphenyl]-4-yl)propanoic acid]", "values": [{"measurement": "LSK cell mobilization compared with firategrast", "setting": "LSK cells", "result": "greater extent than firategrast"}, {"measurement": "IC50", "setting": "[1]; [5]", "result": 3.33, "unit": "nM"}, {"measurement": "inhibition of sVCAM-1 binding compared with Firategrast", "setting": "[1]; [4]", "result": "significantly more potent than Firategrast"}]}, {"compound": "COCCOCc1cc(OC)c(-c2ccc(C[C@H](NC(=O)[C@@H]3CCN3S(=O)(=O)c3cc(Cl)cc(Cl)c3)C(=O)O)cc2)c(OC)c1", "note": "[Compound 1746, (S)-2-((S)-1-((3,5-dichlorophenyl)sulfonyl)azetidine-2-carboxamido)-3-(2′,6′-dimethoxy-4′-((2-methoxyethoxy)methyl)-[1,1′-biphenyl]-4-yl)propanoic acid]", "values": [{"measurement": "IC50", "setting": "[1]; [5]", "result": 3.79, "unit": "nM"}, {"measurement": "inhibition of sVCAM-1 binding compared with other inhibitors", "setting": "[1]; [6]", "result": "inhibition was greatest"}]}, {"compound": "COCCOCc1cc(OC)c(-c2ccc(C[C@H](NC(=O)[C@@H]3CCCN3S(=O)(=O)c3ccc(C(=O)O)cc3)C(=O)O)cc2)c(OC)c1", "note": "[Compound 1747, 4-(((S)-2-(((S)-1-carboxy-2-(2′,6′-dimethoxy-4′-((2-methoxyethoxy)methyl)-[1,1′-biphenyl]-4-yl)ethyl)carbamoyl)pyrrolidin-1-yl)sulfonyl)benzoic acid]", "values": [{"measurement": "IC50", "setting": "[1]; [5]", "result": 7.58, "unit": "nM"}]}, {"compound": "COCCOCCOCCOCc1cc(OC)c(-c2ccc(C[C@H](NC(=O)[C@@H]3CCN3S(=O)(=O)c3ccccc3)C(=O)O)cc2)c(OC)c1", "note": "[Compound 2087, (S)-3-(4′-(2,5,8,11-tetraoxadodecyl)-2′,6′-dimethoxy-[1,1′-biphenyl]-4-yl)-2-((S)-1-(phenylsulfonyl)azetidine-2-carboxamido)propanoic acid]", "values": [{"measurement": "IC50", "setting": "[1]; [5]", "result": 2.06, "unit": "nM"}]}, {"compound": "COCCOCCOCCOCc1cc(OC)c(-c2ccc(C[C@H](NC(=O)[C@@H]3CCN3S(=O)(=O)c3cc(Cl)cc(Cl)c3)C(=O)O)cc2)c(OC)c1", "note": "[Compound 2088, (S)-3-(4′-(2,5,8,11-tetraoxadodecyl)-2′,6′-dimethoxy-[1,1′-biphenyl]-4-yl)-2-((S)-1-((3,5-dichlorophenyl)sulfonyl)azetidine-2-carboxamido)propanoic acid]", "values": [{"measurement": "IC50", "setting": "[1]; [5]", "result": 0.7, "unit": "nM"}, {"measurement": "inhibition of sVCAM-1 binding compared with other inhibitors", "setting": "[1]; [6]", "result": "inhibition was greatest"}]}]}
